Source: paper PMC6646405, “A quantitative, high-throughput method identifies protein–glycan interactions via mass spectrometry” (Communications Biology, 2019)
Values joined by “and” are separate entries in the source; they are usually repeats but may differ in a detail not shown here. Equal entries are not always repeated.

What was measured:
[1] = biological target: streptavidin homotetramer (S4) (Streptomyces avidinii, UniProt P22629); test: CUPRA library screening against negative control streptavidin; assay type: binding; set-up: key: ratio change on GBP addition; ~1.0 = no binding (negative control); details: depletion index, 50 μM streptavidin
[2] = tested on: Maackia amurensis lectins (MAA); test: CUPRA library screening and affinity, MAA; assay type: binding; details: 50uM MAA; mean of 4 DIi values, FigS3c
Description: (§1) Unless otherwise noted, the measurements were performed at 25 °C. […] We identified specific ligands from the depletion index (DIi, Eq. 1) – the change in the fractional abundance (Fi, Eq. 2) ratio of ligand i-bound and free ^UniPproxy ions upon addition of GBP. Prior to calculating Fi, we treated each mass spectrum with the Sliding Window Adducts Removal Method (SWARM)[18] to remove contributions to the abundance of ^UniPproxy -OS^mod complex ions from adducts, formed by the ESI process, of neighbouring complex ions (Supplementary Fig. 2). Shown in Fig. 2a is a summary of the DIi measured by CUPRA screening of the 66-component library against S4 (50 μM). As expected, the average DIi for this negative control is close to 1.0 (0.99 ± 0.03). In contrast, CUPRA screening against the positive controls produced decreases in DIi for one or more of the library components. […] Application of CUPRA to human CD22, part of an important class of Neu5Ac-binding GBPs implicated in both innate and adaptive immunity, correctly identified HMO08 as a ligand (Supplementary Fig. 4a). CUPRA screening of MAA at high concentration (50 μM) identified HMO03 and GA06 as ligands. […]
(§2) Using SWARM-treated mass spectra, DIi was calculated for each ligand from the ratio of the fractional abundances (Fi) of ligand (i)-bound and free ^UniPproxy ions in the presence (+GBP) and absence (-GBP) of GBP, Eqs. […]

[3] = biological target: Sambucus nigra lectin (SNA) (Sambucus nigra, UniProt Q41358); assay type: binding
[4] = tested on: family 51 carbohydrate binding module (CBM51); test: CUPRA library screening and affinity, CBM51; details: 25uM CBM51; mean of 4 DIi values, FigS3a
Description: as §1, §2

[5] = biological target: human carbonic anhydrase type 1 (Homo sapiens, UniProt P00915); test: Direct ESI-MS affinity of OSmod for the universal proxy protein (UniPproxy)
human siglec-2 (CD22) = biological target: T1, human siglec-2 (CD22) (Homo sapiens, UniProt P20273); test: CUPRA library screening and affinity, siglec-2; assay type: binding; details: for average DI: mean of 4 DIi values
T1 construct: Residues 1–332 of human Siglec-2 (MW 140 kDa, purity > 95%) were cloned in frame with human IgG1 Fc and a C-terminal His6; made in house
T1 sequence (P20273 20-332): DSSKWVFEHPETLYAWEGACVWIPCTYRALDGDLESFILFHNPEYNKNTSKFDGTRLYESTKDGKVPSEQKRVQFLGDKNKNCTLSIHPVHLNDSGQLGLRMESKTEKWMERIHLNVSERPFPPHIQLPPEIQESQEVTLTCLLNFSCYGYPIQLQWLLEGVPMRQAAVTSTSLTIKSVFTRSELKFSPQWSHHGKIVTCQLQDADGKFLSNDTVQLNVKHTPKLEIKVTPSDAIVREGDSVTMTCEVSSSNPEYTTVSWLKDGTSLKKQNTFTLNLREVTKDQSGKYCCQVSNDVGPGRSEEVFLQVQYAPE

[6] = biological target: Cholera toxin B subunit homopentamer (CTB5) (Vibrio cholerae serotype O1, UniProt P01556); assay type: binding
Sequence of Cholera toxin B subunit homopentamer (CTB5) (P01556 22-124 limits assumed): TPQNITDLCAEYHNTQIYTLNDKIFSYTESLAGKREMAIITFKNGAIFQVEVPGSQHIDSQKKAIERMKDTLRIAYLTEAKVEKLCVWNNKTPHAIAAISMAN

Sequence of streptavidin homotetramer (S4) (P22629 25-183): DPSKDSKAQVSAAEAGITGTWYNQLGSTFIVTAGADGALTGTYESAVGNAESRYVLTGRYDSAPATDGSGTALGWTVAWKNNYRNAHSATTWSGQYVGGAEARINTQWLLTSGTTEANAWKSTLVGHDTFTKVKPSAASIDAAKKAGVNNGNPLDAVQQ
Sequence of Sambucus nigra lectin (SNA) (Q41358 309-570 limits assumed): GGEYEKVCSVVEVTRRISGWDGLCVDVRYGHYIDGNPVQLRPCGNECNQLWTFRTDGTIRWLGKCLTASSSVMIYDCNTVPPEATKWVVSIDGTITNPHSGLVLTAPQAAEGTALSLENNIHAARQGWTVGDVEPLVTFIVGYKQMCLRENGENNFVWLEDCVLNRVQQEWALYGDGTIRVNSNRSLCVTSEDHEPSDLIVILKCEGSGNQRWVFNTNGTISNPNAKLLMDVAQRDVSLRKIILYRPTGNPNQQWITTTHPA
Sequence of Sambucus nigra lectin (SNA) (Q41358 29-289 partner limits assumed): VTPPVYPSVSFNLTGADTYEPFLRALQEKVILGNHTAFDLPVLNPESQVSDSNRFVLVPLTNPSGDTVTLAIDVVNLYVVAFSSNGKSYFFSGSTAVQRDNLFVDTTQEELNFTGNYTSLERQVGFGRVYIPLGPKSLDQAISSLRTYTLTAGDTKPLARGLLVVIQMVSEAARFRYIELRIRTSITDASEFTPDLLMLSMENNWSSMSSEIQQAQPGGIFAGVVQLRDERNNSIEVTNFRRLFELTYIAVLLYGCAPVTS
Sequence of human carbonic anhydrase type 1 (P00915 whole entry): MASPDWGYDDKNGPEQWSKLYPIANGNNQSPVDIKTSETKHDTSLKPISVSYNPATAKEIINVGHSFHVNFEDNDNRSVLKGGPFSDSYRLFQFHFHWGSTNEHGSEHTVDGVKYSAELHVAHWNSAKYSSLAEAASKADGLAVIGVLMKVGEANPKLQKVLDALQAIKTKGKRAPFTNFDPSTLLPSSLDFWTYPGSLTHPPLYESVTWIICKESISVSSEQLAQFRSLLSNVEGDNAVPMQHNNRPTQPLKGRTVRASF

Q: For `CC(=O)N(CCOCCOCCNC(=O)C(Cc1ccccc1)NC(=O)C(Cc1ccccc1)NC(=O)CCCC(=O)NCCc1ccc(S(N)(=O)=O)cc1)C1OC(CO)C(OC2OC(CO)C(O)C(O)C2O)C(O)C1O` (stereo not drawn) [HMO01, Galβ1-4Glc-CL], which “average DI” value ([1]; mean of 4) is on record?
A: 0.9888

Q: And the “DIi(50uM S4)” value ([1]; measurement 1 of 4)?
A: 0.9878

Q: What about the “DIi(50uM S4)” value ([1]; measurement 2 of 4) of the same compound?
A: 0.986

Q: And the “DIi(50uM S4)” value ([1]; measurement 3 of 4)?
A: 0.9917

Q: And the “DIi(50uM S4)” value ([1]; measurement 4 of 4)?
A: 0.9898

Q: And the “average DI” value [2]?
A: 1.065

Q: What about the “DIi(5uM SNA)” value [3] of the same compound?
A: 1.0284 and 1.03 and 1.033 and 1.035

Q: What about the “average DI” value [3] of the same compound?
A: 1.032

Q: What about the “average DI” value [4] of the same compound?
A: 1.026

Q: What about the Kd [5] of the same compound?
A: 5.1 ± 1.4 µM

Q: And the “average DI” value (human siglec-2 (CD22); 25uM CD22)?
A: 1.013

Q: And the “DIi(25uM CD22)” value (human siglec-2 (CD22); 25uM CD22, replicate column 1 of 4)?
A: 1.023

Q: What about the “DIi(25uM CD22)” value (human siglec-2 (CD22); 25uM CD22, replicate column 2 of 4) of the same compound?
A: 1.029

Q: What about the “DIi(25uM CD22)” value (human siglec-2 (CD22); 25uM CD22, replicate column 3 of 4) of the same compound?
A: 0.9963

Q: What about the “DIi(25uM CD22)” value (human siglec-2 (CD22); 25uM CD22, replicate column 4 of 4) of the same compound?
A: 1.002

Q: And the “average DI” value (human siglec-2 (CD22); 25uM CD22 at 0C)?
A: 1.021

Q: And the “DIi(25uM CD22 at 0C)” value (human siglec-2 (CD22); 25uM CD22 at 0C, replicate column 1 of 4)?
A: 1.003

Q: What about the “DIi(25uM CD22 at 0C)” value (human siglec-2 (CD22); 25uM CD22 at 0C, replicate column 2 of 4) of the same compound?
A: 1.007

Q: And the “DIi(25uM CD22 at 0C)” value (human siglec-2 (CD22); 25uM CD22 at 0C, replicate column 3 of 4)?
A: 1.036

Q: And the “DIi(25uM CD22 at 0C)” value (human siglec-2 (CD22); 25uM CD22 at 0C, replicate column 4 of 4)?
A: 1.04

Q: What about the “DIi(2uM CTB5)” value [6] of the same compound?
A: 0.9935 and 0.9881 and 0.9983 and 0.9929

Q: And the “DIi(10uM CTB5)” value [6]?
A: 0.9693 and 0.964 and 0.9533 and 0.9481

Q: And the “DIi(10uM CTB5 at 0C)” value [6]?
A: 1.005 and 0.995 and 1.012 and 1.002

Q: What about the “average DI” value [6] of the same compound?
A: 0.9932 and 0.9587 and 1.004
